Measured values: patent publication US11779628B2, “Use of cell-permeable peptide inhibitors of the JNK signal transduction pathway for the treatment of various diseases” (Xigen Inflammation Ltd., priority 2014, dated 2023)
Like-named read-outs stand apart in the source and are kept apart here. Non-standard residues stand in square brackets, D forms with d. No end group written: not given here.

Columns and labels:
[1] = tested on: patients after ocular surgery; assay: Clinical Phase II, post-surgery intraocular inflammation: safety
Protocol: The criteria for evaluation of safety were: • a. Visual acuity by ETDRS method • b. Slit Lamp examination findings • c. The results of the ophthalmic fundus examination • d. Intra Ocular Pressure (IOP) measurements • e. Vital signs (blood pressure (BP), pulse rate (PR) and rhythm) • f. The results of the hematology and chemistry laboratory tests • g. The occurrence of Adverse Events • h. Presence (or not) of XG-102 in plasma 1 hour after the administration of study treatment in a subset of patients (approximately 30).
An AE is therefore any unfavorable and unintended sign, symptom or disease temporally associated with the use of a medicinal product, whether or not considered related to the medicinal product.
A Suspected Unexpected Serious Adverse Reaction (SUSAR) was defined as a suspected adverse reaction related to the treatment that is both unexpected (i.e. not consistent with the expected outcomes of the study treatment being administered) and serious.
Patients were analyzed as treated, i.e. according to the treatment which they received. The safety set was the primary analysis set for the safety analysis.
The present study was a double-blind study. All patients who were randomized and for whom the sub-conjunctival injection was started are included in the safety analysis by dose group. […] If the study treatment eye drops were stopped prematurely (i.e. before day 21), the patients concerned continued follow-up until day 28, in accordance with the study protocol.
Investigators assessed (in a blinded manner) the relationship of each reported AE to any of the study treatments. An event was considered to be related to study treatment if the Investigator ticked either ‘possible’ or ‘probable’ as the reply to this question.

[2] = tested on: Sprague-Dawley albino rats, light-induced photoreceptor cell death; assay type: in vivo; details: PBN
From the text: The aim of this study was to investigate the dose effect of XG-102 on light-induced photoreceptor cell death.
50 male Rat (Sprague-Dawley (albinos rat); approximately 8 weeks; 200-250 g (on ordering)) have been used. Rats are most commonly used in this experimental model. Animals were examined before study, and particular attention was paid to the eyes. Animals were held in observation for 2 weeks following their arrival. Animals were observed daily for signs of illness. Only healthy animals with no ocular abnormalities were accepted for use in experiments. Animals were housed individually in standard cages (420×270×190 mm)^ii. All animals were housed under identical environmental conditions. The temperature was held at 22±2° C. and the relative humidity at 55±10%. Rooms were continuously ventilated (15 times per hour). A cycle of 12 hours light (200-300 lx) and 12 hours darkness was automatically controlled. These parameters were continuously controlled and recorded. Throughout the study, animals had free access to food and water. They were fed a standard dry pellet diet. Tap water was available ad libitum from plastic bottles.
Forty-eight (48) rats were randomly divided into six (6) groups of eight (8) animals each. Test item (XG-102: 30 mg/ml, 3 mg/ml, and 0.3 mg/ml) and vehicle (0.9% NaCl) were administered by intravitreal injection in right eyes the day before induction. The reference (Phenyl-N-test-Butylnitrone (PBN) (50 mg/kg)) and vehicle were intraperitoneally injected 30 min before induction then, 3 times during 12 hours of light exposition, then once after induction. Animals were placed in constant light (7000 lux) for 24 h. Electroretinograms (ERG) were recorded before light treatment and on days 9, 16 and 23 after induction. Eyes were then taken for histology and outer nuclear layer (ONL) thickness assessment. The table below summarizes the allocation of animals in treatment groups:
For the intravitreal injection animals were anesthetized by intramuscular injection of a mixture of xylazine/ketamine. Test item (5 μl) and vehicle (5 μl) were injected in the right eye. The injection was performed under an operating microscope in the supratemporal area at pars plana using a 33G-needle mounted on a 50 μl Hamilton. The filled syringe was mounted into the UltraMicroPump III to achieve accurate injection in microliter range. Reference and vehicle were injected intraperitoneally at a dose volume of 2.5 ml/kg using a 30G-needle mounted on a 1 ml-syringe.
Light Exposure: The rats that had been dark-adapted overnight were exposed for 24 hours to a continuous white fluorescent light (7000 Ix) in clear plastic cages. Each cage contained one rat. After exposure, the rats returned to rearing cyclic light conditions.
ERG was recorded before induction and 7, 14 and 21 days after cessation of exposure (Days 9, 16 and 23) on right eyes of dark-adapted and anesthetized animals. The latency times (for a- and b-wave) and the a-wave and b-wave amplitudes were measured for each ERG; the latency times were expressed as millisecond and the a-wave and b-wave as a percentage of the baseline value obtained before light exposure. 15 min before measurement 10 μl Mydriaticum® (0.5% tropicamide) were instilled for pupillary dilatation.
ERG Parameters: • Color: white maximum. • Maximum intensity: 2.6 cd·s/m^2 (0 dB); Duration 0.24 ms; number of flash: 1. • Filter: 50 Hz. • Impedence Threshold: 90 kΩ.
Measurement of the ONL Thickness: After ERG testing, animal was euthanized by an overdose of pentobarbital and the right eyes were enucleated, fixed and embedded in paraffin. Sections (5 μm thick) were performed along the vertical meridian and stained with Trichrome-Masson. The vertical meridian included the optic nerve.
Group mean values and standard deviation were calculated. A statistical Mann and Whitney test was used to evaluate the differences between pair-wise groups. For comparison between time-point into each vehicle groups, a Friedman test was used. […]

JNK = details: Dickens et al. 1997; cited from earlier work
TC-3 cell cultures = assay: Cellular import of fluorescein-labeled TAT and TAT-IB1(s) peptides; assay type: cell-based; details: fluorescein-labeled peptide 1 μM
Protocol: The ability of the L- and D-enantiomeric forms of TAT and TAT-IB1(s) peptides (“TAT-IB peptides”) to enter cells was evaluated. L-TAT, D-TAT, L-TAT-IB1(s), and D-TAT-IB1(s) peptides [SEQ ID NOs: 5, 6, 9 and 12, respectively] were labeled by N-terminal addition of a glycine residue conjugated to fluorescein. Labeled peptides (1 μM) were added to TC-3 cell cultures, which were maintained as described in Example 3. At predetermined times cells were washed with PBS and fixed for five minutes in ice-cold methanol-acetone (1:1) before being examined under a fluorescence microscope. Fluorescein-labeled BSA (1 μM, 12 moles/mole BSA) was used as a control.
Little to no signal was present at 48 hours.
Fluorescent signals from these all-D retro-inverso peptides were still very strong 1 week later, and the signal was only slightly diminished at 2 weeks post treatment.

TC-3 cells = assay: IL-1 induced pancreatic beta-cell death; assay type: cell-based; details: single addition 1 μM, two days with IL-1
Protocol: Inhibition of IL-1 induced pancreatic beta-cell death by the D-TAT-IB1(s) peptide was analyzed. […] Apoptotic cells were then counted after two days of incubation with IL-1 by use of Propidium Iodide and Hoechst 33342 nuclear staining. A minimum of 1,000 cells were counted for each experiment. Standard Error of the Means (SEM) are indicated, n=5. […] Long term inhibition of IL-1P induced cell-death by the D-TAT-IB1 peptide was also analyzed. […] Apoptotic cells were then counted after 15 days of incubation with IL-1 by use of propidium iodide and Hoechst 33342 nuclear staining. […] A minimum of 1.000 cells were counted for each experiment.

[3] = tested on: female Sprague-Dawley rats, CYP-induced cystitis; assay: CYP-induced acute cystitis, intravesical treatment; assay type: in vivo, rat; details: 50 mg/mL i.ves., 24 h post-CYP
Protocol: (§1) This preclinical model is well-used to test therapeutic approaches for the treatment of interstitial cystitis/painful bladder syndrome (IC/PBS).
(§2) Animals were acclimatized to the laboratory conditions for at least 3 days before the start of any experiments. The animals were allocated to the following four experimental groups (n=10 animals per group):
(§3) To induce acute cystitis, a single i.p. injection of CYP at a dose of 150 mg/kg in a final volume of 5 mL/kg was performed. Control rats received physiological saline under the same experimental conditions as CYP (final volume of 5 mL/kg, i.p.).
(§4) On the day of each experiment, weight of rats was recorded.
Standardized conditions including fixed time-of-day (a.m. to minimize the potential circadian variations in the behaviours responses) and single-experimenter testing of all animals were applied to minimize variability behavior-based pain testing. Visceral pain including allodynia and hyperalgesia was evaluated by applying to the lower abdomen, close to the urinary bladder, a set of 8 calibrated von Frey filaments of increasing forces (1, 2, 4, 6, 8, 10, 26 and 60 g) with an interstimulus interval of 5 seconds. Prior testing, the abdominal area designed for mechanical stimulation of each animal was shaved. Animals were then placed on a raised wire mesh floor under individual transparent Plexiglas box and acclimatized for at least 30 minutes before starting the von Frey test. Filaments were then applied 1-2 seconds through the mesh floor with enough strength to cause the filament to slightly bend. Each filament was tested 3 times. Care was taken to stimulate different areas within the lower abdominal region in the vicinity of the urinary bladder to avoid desensitization.
Urinary bladders were rapidly collected and cleaned from lipoid tissue. […] Finally, wall thickness was measured using a digital caliper by placing the bladder wall between the two outside jaws.

[4] = tested on: female Sprague-Dawley rats, CYP-induced cystitis; assay: CYP-induced acute cystitis, intravenous treatment; assay type: in vivo, rat; details: XG-102 2 mg/kg i.v. or ibuprofen 10 mg/kg i.v., 24 h post-CYP
Protocol: as §1, §2, §3, §4
Standardized conditions including fixed time-of-day (a.m. to minimize the potential circadian variations in the behaviours responses) and single-experimenter testing of all animals were applied to minimize variability behavior-based pain testing. Visceral pain including allodynia and hyperalgesia was evaluated by applying to the lower abdomen, close to the urinary bladder, a set of 8 calibrated von Frey filaments of increasing forces (1, 2, 4, 6, 8, 10, 26 and 60 g) with an interstimulus interval of 5 seconds. Prior testing, the abdominal area designed for mechanical stimulation of each animal was shaved. […]

[5] = Dexamethasone group, blinded assessment

In the case of C[C@@H]1C[C@H]2[C@@H]3CCC4=CC(=O)C=C[C@]4(C)[C@@]3(F)[C@@H](O)C[C@]2(C)[C@@]1(O)C(=O)CO [Dexamethasone, reference compound], the “Reported AEs by severity: Mild” value ([1]; Dexamethasone dose group) is reported as 42 (76.4%) number of events (% of reported events), the “Reported AEs by severity: Moderate” value ([1]; Dexamethasone dose group) is reported as 9 (16.4%) number of events (% of reported events) and the “Reported AEs by severity: Severe” value ([1]; Dexamethasone dose group) is reported as 4 (7.3%) number of events (% of reported events). The “AEs considered by the Investigator to be related to Dexamethasone” value [1, 5] was 2 (3.6%) Total # events (%), the “AEs considered by the Investigator to be related to XG-102” value [1, 5] was 13 (23.64%) Total # events (%) and the “Intraocular pressure increased, patients” value ([1]; dexamethasone) was 14%. The “events in SOC EYE DISORDERS” value ([1]; dexamethasone) was 30 events, the “patients with SAEs” value ([1]; dexamethasone) was 2 patients and the “patients with events in SOC EYE DISORDERS” value ([1]; dexamethasone) was 16 (32%).

With CC(C)(C)[N+]([O-])=Cc1ccccc1 [PBN, Phenyl-N-tert-Butylnitrone] the “recovery of the b-wave (% of baseline)” value ([2]; Day 9) was 100%, the “recovery of the b-wave (% of baseline)” value ([2]; Day 16) was 103.6% and the “decrease of ONL thickness vs untreated eyes” value ([2]; Day 23) was 16%. The “recovery of the a-wave (% of baseline)” value ([2]; Day 23) was 76.2% and the “recovery of the b-wave (% of baseline)” value ([2]; Day 23) was 102.4%.

In the case of “PGTGCGDTYRPKRPTTLNLFPQVPRSQDT (Description of sequence peptide IB1-long (see Table 1))”, the “efficiency in binding JNK relative to c-Jun or ATF2” value (JNK) is given as “approximately 100 fold”.

With “GRKKRRQRRRPPRPKRPTTLNLFPQVPRSQD [L-TAT-IB1(s)]” the entry into cells (TC-3 cell cultures) was “efficiently and rapidly (less than five minutes) entered cells”.

In the case of “TDQSRPVQPFLNLTTPRKPRYTDPPRRRQRRKKRG ([dT][dD][dQ][dS][dR][dP][dV][dQ][dP][dF][dL][dN][dL][dT][dT][dP][dR][dK][dP][dR][dY][dT][dD][dP][dP][dR][dR][dR][dQ][dR][dR][dK][dK][dR]G) [D-TAT-IB1]”, the IL-1 induced apoptosis (TC-3 cells) is reported as “decreased IL-1 induced apoptosis to a similar extent as L-TAT-IB peptides”.

In the case of “GRKKRRQRRR (Description of sequence Peptide L-TAT (see Table 1))”, the entry into cells (TC-3 cell cultures) is reported as “efficiently and rapidly (less than five minutes) entered cells”.

For “IPSPSVEEPHKHRPTTLRLTTLGAQDS (Description of sequence Peptide IB2-long (see Table 1))”, the “efficiency in binding JNK relative to c-Jun or ATF2” value (JNK) is given as “approximately 100 fold”.

With CC(C)Cc1ccc(C(C)C(=O)O)cc1 (stereo not shown) [ibuprofen] the haemorrhage scores [3] was “no significant change was observed regarding haemorrhage scores”, the nociceptive scores [3] was “significant decrease of nociceptive scores” and the “urinary bladder wall thickness” value [3] was “a significant decrease was observed in urinary bladder wall thickness”. The nociceptive threshold ([3]; vs vehicle) was “Nociceptive threshold was significantly increased by ibuprofen treatment”, the nociceptive scores [4] was “significantly decrease nociceptive scores” and the nociceptive threshold [4] was “Nociceptive threshold was significantly increased by ibuprofen treatment”.
